Tests used:
Assay type in all cases: cell-based
MOLM16 = experiment: CellTiter-Glo cell viability, MOLM16 leukemia cell line; details: Table 5
Method: (§1) Cell growth inhibitory activity of representative Compounds of the Disclosure was determined using the CellTiter-Glo® Luminescent Cell Viability Assay. Cells were seeded in 384-well white opaque cell culture plates at a density of 2,000 cells/well with serially diluted compounds and incubated at 37° C. in an atmosphere of 95% air and 5% CO2 for 4 days. Cell viability was determined using the CellTiter-Glo® Luminescent Cell Viability Assay Kit (Promega, Madison, Wis.) according to the manufacture's instruction. Briefly, a volume of CellTiter-Glo® Reagent equal to the volume of cell culture medium was added to each well, and then the plates were incubated at room temperature for 10-20 minutes. The luminescent signal was measured using a Tecan Infinite M1000 multimode microplate reader (Tecan, Morrisville, N.C.). The half maximal inhibitory concentration (IC50) was calculated using the GraphPad Prism 5 software (GraphPad Software, La Jolla, Calif.).
(§2) Cpd. Nos. 18 and 19 were tested in various leukemia cell lines using the CellTiter-Glo® Luminescent Cell Viability Assay as described in Example 35.

MDA-MB-231 = experiment: WST-8 cell growth inhibition assay, MDA-MB-231; details: Homo sapiens, WST-8, Table 6
Method: (§3) Cpd. Nos. 7 and 18 were tested in various triple-negative breast cancer cell lines using the WST-8 cell growth assay.

MonoMac6 = experiment: CellTiter-Glo cell viability, MonoMac6 leukemia cell line; details: Homo sapiens, MONO-MAC-6, Table 5
Method: as §1, §2

BRD2 [1] = target: T1, BRD2 (Homo sapiens, UniProt P25440); experiment: Western blot, degradation of BRD2 in RS4;11 cells; details: 2.5 h, as compared to Compound A, FIG. 1
T1 construct: endogenous in cells; host or cells: RS4;11 and MOLM-13 leukemia cells
T1 sequence (P25440 whole entry): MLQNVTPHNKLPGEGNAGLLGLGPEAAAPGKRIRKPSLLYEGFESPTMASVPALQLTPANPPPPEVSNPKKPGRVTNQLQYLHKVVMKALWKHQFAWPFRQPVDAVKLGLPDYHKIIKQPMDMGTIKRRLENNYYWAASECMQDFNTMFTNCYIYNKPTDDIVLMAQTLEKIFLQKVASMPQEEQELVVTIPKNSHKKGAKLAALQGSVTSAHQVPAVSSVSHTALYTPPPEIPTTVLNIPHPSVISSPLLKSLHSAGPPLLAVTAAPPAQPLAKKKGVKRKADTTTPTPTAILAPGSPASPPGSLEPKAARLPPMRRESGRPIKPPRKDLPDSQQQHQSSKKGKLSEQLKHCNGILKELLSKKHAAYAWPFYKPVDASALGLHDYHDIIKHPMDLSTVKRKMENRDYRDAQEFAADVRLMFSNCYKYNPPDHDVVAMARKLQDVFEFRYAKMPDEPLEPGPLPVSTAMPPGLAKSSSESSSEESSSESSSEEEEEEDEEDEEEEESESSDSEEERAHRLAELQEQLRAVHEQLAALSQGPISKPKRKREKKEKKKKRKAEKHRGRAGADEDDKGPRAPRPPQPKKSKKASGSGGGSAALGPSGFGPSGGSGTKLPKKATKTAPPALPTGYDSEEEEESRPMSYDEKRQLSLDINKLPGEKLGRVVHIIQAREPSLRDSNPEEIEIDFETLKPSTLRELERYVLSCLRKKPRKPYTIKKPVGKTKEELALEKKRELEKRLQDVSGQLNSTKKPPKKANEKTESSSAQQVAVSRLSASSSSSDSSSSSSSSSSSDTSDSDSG
Method: (§4) Cells were treated with compounds at the indicated concentrations for 2.5 h and 3 h, respectively, for RS4;11 (see FIG. 1) and MOLM-13 (see FIG. 2) cells. Compound A is ((S)-3-benzyl-6,9-dimethyl-2-((1-methyl-1H-pyrazol-4-yl)ethynyl)-4H,6H-thieno[2,3-e][1,2,4]triazolo[3,4-c][1,4]oxazepine). See Cpd. No. 85 of U.S. Appl. No. 62/295,271.
(§5) Collected cells were lysed in lysis buffer [1% CHAPS, 150 mM NaCl, 20 mM Tris-HCl, 1 mM. EDTA, 1 mM EGTA, and COMPLETE proteinase inhibitor (Roche)] for 30 minutes on ice. Protein concentrations were determined using the Bio-Rad Protein Assay Dye reagent. Whole tumor lysates (20 μg) were separated on a 4-20% Novex gels (Invitrogen). The separated proteins were transferred to a PVDF membrane (BIO-RAD) and the PVDF membrane was then blotted with 5% Blotting-Grade Blocker (BIO-RAD) for 1 hour at room temperature. The primary antibodies used were BRD4 rabbit polyclonal antibody [Bethyl Laboratories, Inc, cat #A301] and BRD2 antibody.
(§6) The BIO-RAD Clarity Western ECL Substrates (BIO-RAD) and HyBlot CL film (Denville) were used for signal development and detection using a SRX-101A tabletop processor (Konica Minolta).

MDA-MB-474 = experiment: WST-8 cell growth inhibition assay, MDA-MB-474; details: WST-8, Table 6
Method: as §3

BRD4 = target: T2, BRD4 (Homo sapiens, UniProt O60885); experiment: Western blot, degradation of BRD4 in MOLM-13 cells; details: 3 h, as compared to Compound A, FIG. 2
T2 construct: Collected cells were lysed in lysis buffer; endogenous in cells; host or cells: RS4;11 and MOLM-13 leukemia cells
Method: as §4, §5, §6

AML5 = experiment: CellTiter-Glo cell viability, AML5 leukemia cell line; details: Table 5
Method: as §1, §2

KG1 = experiment: CellTiter-Glo cell viability, KG1 leukemia cell line; details: Homo sapiens, KG-1, Table 5
Method: as §1, §2

BRD2 [2] = target: T1, BRD2; experiment: Western blot, degradation of BRD2 in MOLM-13 cells; details: 3 h, as compared to Compound A, FIG. 2
Method: as §4, §5, §6

MDA-MB-436 = experiment: WST-8 cell growth inhibition assay, MDA-MB-436; details: Homo sapiens, WST-8, Table 6
Method: as §3

MDA-MB-468 = experiment: WST-8 cell growth inhibition assay, MDA-MB-468; details: Homo sapiens, WST-8, Table 6
Method: as §3

HL60 = experiment: CellTiter-Glo cell viability, HL60 leukemia cell line; details: Homo sapiens, HL-60, Table 5
Method: as §1, §2

IC50 (MOLM16): < 0.01 nM
IC50 (MDA-MB-231): 0.76 ± 0.08 nM
IC50 (MonoMac6): 0.014 ± 0.004 nM
degradation of BRD2 protein (Western blot) (BRD2 [1]): induce degradation
IC50 (MDA-MB-474): 0.31 ± 0.01 nM
degradation of BRD4 protein (Western blot) (BRD4): induce degradation
IC50 (AML5): < 0.01 nM
IC50 (KG1): 0.047 ± 0.02 nM
degradation of BRD2 protein (Western blot) (BRD2 [2]): induce degradation
IC50 (MDA-MB-436): 1.52 ± 0.21 nM
IC50 (MDA-MB-468): 0.78 ± 0.06 nM
IC50 (HL60): 0.003 ± 0.001 nM
SMILES: Cc1nnc2n1-c1sc(C#Cc3cnn(CCCC#Cc4cccc5c4CN(C4CCC(=O)NC4=O)C5=O)c3)c(Cc3ccccc3)c1CO[C@H]2C (stereo partly drawn) [Cpd. No. 18, 3-(4-(5-(4-(((S)-3-benzyl-6,9-dimethyl-4H,6H-thieno[2,3-e][1,2,4]triazolo[3,4-c][1,4]oxazepin-2-yl)ethynyl)-1H-pyrazol-1-yl)pent-1-yn-1-yl)-1-oxoisoindolin-2-yl) piperidine-2,6-dione]
